US8778896B2, “Levoisovalerylspiramycin I, II or III, preparations, preparation methods and uses thereof” (Shenyang Tonglian Group Co., Ltd., priority 2010, dated 2014)
≈ marks a conversion by molar mass, not a printed value.

Tests used:
[1] = system: pyogenic streptococcus 102; assay: Curative effect on mouse with abdominal infection (ED50); type: in vivo; settings: Streptococcus, 102, 168 h, pyogenic streptococcus 102, challenging dose 7.8 × 10^4 CFU/0.5 ml, deaths in 7 days, Bliss, read-out: ED50
Method: (§1) Test method: preparation of infection bacterial liquid: taking out the test bacterial liquid which is kept in a refrigerator at −80[…] to room temperature for about 1 h, then inoculating streptococcus pneumonia, pyogenic streptococcus and enterococcus absorbing 0.1 ml bacterial liquid respectively to 2 ml MH broth (add 10% inactivated horse serum), and inoculating 0.1 ml bacterial liquid of staphylococcus aureus to 2 ml MH broth according to the same method above; putting it in an incubator at 37[…] to be cultivated for 18 h, to obtain original bacterial liquid; diluting the original bacterial liquid with 5% gastric mucin to make animals infected with 100% lethal bacteria, to obtain infection bacterial liquid.
(§2) The clinical route of administration of carrimycin is proposed to be oral administration, thus intragastric administration is adopted in carrimychin test. Levoisovalerylspiramycin I (obtained in Embodiment 1) and of crystalline compound of levoisovalerylspiramycin I (prepared in Embodiment 27) are fed to animals via […].
(§3) After the mice are infected, respectively feed each mouse 0.2 ml via intragastric administration at 0.5 to 6 h, and they have no adverse reaction. Observe the number of deaths in 7 days, and calculate the 50% effective dose (ED50) of each drug for the infected mouse and compare the protective effect of drugs by Bliss program.

[2] = system: pyogenic streptococcus 119; assay: as above; type: in vivo; settings: Streptococcus, 119, 168 h, pyogenic streptococcus 119, challenging dose 4.9 × 10^4 CFU/0.5 ml, deaths in 7 days, Bliss, read-out: ED50
Method: as §1, §2, §3

[3] = system: pyogenic streptococcus 772; assay: as above; type: in vivo; settings: Streptococcus, 772, 168 h, pyogenic streptococcus 772, challenging dose 6.9 × 10^3 CFU/0.5 ml, deaths in 7 days, Bliss, read-out: ED50
Method: as §1, §2, §3

[4] = system: streptococcus pneumoniae57; assay: MIC against the infecting test organism; type: cell-based, streptococcus pneumoniae; settings: read-out: MIC
[5] = system: pyogenic streptococcus 772; assay: MIC against the infecting test organism; type: cell-based; settings: read-out: MIC
staphylococcus aureus76 = assay: MIC against the infecting test organism; type: cell-based, staphylococcus aureus; settings: read-out: MIC
[6] = system: pyogenic streptococcus (93); assay: Clinical isolates, agar double dilution method; type: cell-based; settings: 93 clinical isolates of pyogenic streptococcus; for MIC50: read-out: MIC50; for MIC90: read-out: MIC90
[7] = system: streptococcus pneumoniae3; assay: Curative effect on mouse with abdominal infection (ED50); type: in vivo, streptococcus pneumoniae; settings: Streptococcus, 168 h, streptococcus pneumoniae3, challenging dose 6.4 × 10^4 CFU/0.5 ml, deaths in 7 days, Bliss, read-out: ED50
Method: as §1, §2, §3

[8] = system: streptococcus pneumoniae57; assay: as above; type: in vivo, streptococcus pneumoniae; settings: Streptococcus, 168 h, streptococcus pneumoniae57, challenging dose 8.8 × 10^4 CFU/0.5 ml, deaths in 7 days, Bliss, read-out: ED50
Method: as §1, §2, §3

[9] = system: streptococcus pneumoniae18; assay: as above; type: in vivo, streptococcus pneumoniae; settings: Streptococcus, 168 h, streptococcus pneumoniae18, challenging dose 9.6 × 10^4 CFU/0.5 ml, deaths in 7 days, Bliss, read-out: ED50
Method: as §1, §2, §3

[10] = system: streptococcus pneumoniae (112); assay: Clinical isolates, agar double dilution method; type: cell-based; settings: 112 clinical isolates of streptococcus pneumoniae; for MIC50: read-out: MIC50; for MIC90: read-out: MIC90
[11] = system: staphylococcus aureus (155); assay: Clinical isolates, agar double dilution method; type: cell-based; settings: 155 clinical isolates of staphylococcus aureus; for MIC50: read-out: MIC50; for MIC90: read-out: MIC90
[12] = system: pyogenic streptococcus 102; assay: MIC against the infecting test organism; type: cell-based; settings: read-out: MIC
[13] = system: streptococcus pneumoniae3; assay: MIC against the infecting test organism; type: cell-based, streptococcus pneumoniae; settings: read-out: MIC
[14] = system: Chlamydia Trachomatis B/TW-5/OT; assay: Chlamydia in vitro MIC, McCoy cells, immunofluorescence; type: cell-based; settings: 48 hours, read-out: MIC
[15] = system: streptococcus pneumoniae18; assay: MIC against the infecting test organism; type: cell-based, streptococcus pneumoniae; settings: read-out: MIC
[16] = system: Chlamydia Trachomatis D/UW-3/Cx; assay: Chlamydia in vitro MIC, McCoy cells, immunofluorescence; type: cell-based; settings: 48 hours, read-out: MIC
S. epidermidis (115) = assay: Clinical isolates, agar double dilution method; type: cell-based; settings: Staphylococcus epidermidis, 115 clinical isolates of S. epidermidis; for MIC50: read-out: MIC50; for MIC90: read-out: MIC90
staphylococcus aureus21 = assay: MIC against the infecting test organism; type: cell-based, staphylococcus aureus; settings: read-out: MIC
[17] = system: adult acute respiratory infections caused by sensitive bacteria; assay: Clinical test versus Azithromycin, multi-center random double blind; type: in vivo; settings: patients 18 to 65 years
Method: Adopt a multi-center, random, two blind, double simulation control test, which is carried out in 5 hospitals concurrently according to the unified clinical testing program.
1. Patients from 18 to 65 years old (men and women);
2. Sensitive acute respiratory infections caused by sensitive bacteria include acute bacterial pharyngitis, acute suppurative tonsillitis, acute tracheobronchitis, mild pneumonia and acute nasosinusitis etc;
3. Any subject shall sign an informed consent before being selected.
4. All subjects shall be contracepted in the research period and within at least 3 months upon being dosed.
1. Those with hepatic or renal insufficiency (Blood Cr>1.5 mg/dl and ALT>normal upper limit)
2. The women in pregnancy or lactation
3. Those with gastrointestinal tract diseases, who cannot take drugs orally.
4. Those who take antibacterial within one week before the selection.
According to statistics on the test results by statistics experts, the clinical efficacy (FAS) is: […]

[18] = system: pyogenic streptococcus 119; assay: MIC against the infecting test organism; type: cell-based; settings: read-out: MIC
enterococcus32 = assay: MIC against the infecting test organism; type: cell-based, enterococcus; settings: Enterococcus, read-out: MIC
[19] = Acute toxicity on mice via oral administration; settings: mouse, in vivo, po, 4000 mg/kg
Method: Both mice and rats take drugs orally (levoisovalerylspiramycin I, II and III prepared in Embodiment 1)
After observing the mice and rats for two days before test, and those without abnormal conditions is carried out test. Don't give anything to eat to mice and rats overnight before test. […] In this test, feed drugs to mice and rats respectively as per 4000 mg/kg, wherein, mice follow 100 mg/ml, with intragastric administration capacity of 0.6-0.8 ml per one, while rats 173 mg/ml, with intragastric administration capacity of 0.8˜1.0 ml/50 g. Observe those taking drugs for one week for toxic reaction and death.

SMILES	ED50 [1] [mg/kg]	ED50 [2] [mg/kg]	ED50 [3] [mg/kg]	MIC [4] [µg/mL]	MIC [5] [µg/mL]	MIC (staphylococcus aureus76) [µg/mL]	MIC50 [6] [µg/mL]	MIC90 [6] [µg/mL]	ED50 [7] [mg/kg]	ED50 [8] [mg/kg]	ED50 [9] [mg/kg]	MIC50 [10] [µg/mL]	MIC90 [10] [µg/mL]	MIC50 [11] [µg/mL]	MIC90 [11] [µg/mL]	MIC [12] [µg/mL]	MIC [13] [µg/mL]	MIC [14] [µg/mL]	MIC [15] [µg/mL]	MIC [16] [µg/mL]	also measured
CC[C@H]1OC(=O)[C@H](C)[C@@H](O[C@H]2C[C@@](C)(OC)[C@@H](O)[C@H](C)O2)[C@H](C)[C@@H](O[C@@H]2O[C@H](C)C[C@H](N(C)C)[C@H]2O)[C@](C)(O)C[C@@H](C)CN(C)[C@H](C)[C@@H](O)[C@]1(C)O [azithromycin, reference compound]	159	68.5	46.9	0.12 (≈ 0.16 µM)	0.25 (≈ 0.334 µM)	1 (≈ 1.34 µM)	0.5 (≈ 0.668 µM)	> 64	18.3	19	14.9	0.25 (≈ 0.334 µM)	8 (≈ 10.7 µM)	2 (≈ 2.67 µM)	> 64	0.5 (≈ 0.668 µM)	0.12 (≈ 0.16 µM)	0.5 (≈ 0.668 µM)	0.06 (≈ 0.0801 µM)	0.25 (≈ 0.334 µM)	MIC50 (S. epidermidis (115)): 8 µg/mL (≈ 10.7 µM); MIC90 (S. epidermidis (115)): > 64 µg/mL; MIC (staphylococcus aureus21): 4 µg/mL (≈ 5.34 µM); adverse reaction [17]: 7.6%; clearance of pathogens [17]: 92.86%; clinical efficacy (FAS) [17]: 89.61%; MIC [18]: 0.25 µg/mL (≈ 0.334 µM); MIC (enterococcus32): 1 µg/mL (≈ 1.34 µM)
CC[C@H]1OC(=O)[C@H](C)[C@@H](O[C@H]2C[C@@](C)(OC)[C@@H](O)[C@H](C)O2)[C@H](C)[C@@H](O[C@@H]2O[C@H](C)C[C@H](N(C)C)[C@H]2O)[C@](C)(O)C[C@@H](C)C(=O)[C@H](C)[C@@H](O)[C@]1(C)O [erythrocin, reference compound]	361	234	101	0.25 (≈ 0.341 µM)	0.5 (≈ 0.681 µM)	1 (≈ 1.36 µM)	0.5 (≈ 0.681 µM)	> 64	85.1	102	57.1	0.25 (≈ 0.341 µM)	64 (≈ 87.2 µM)	1 (≈ 1.36 µM)	> 64	0.5 (≈ 0.681 µM)	1 (≈ 1.36 µM)	0.5 (≈ 0.681 µM)	0.06 (≈ 0.0818 µM)	0.5 (≈ 0.681 µM)	MIC50 (S. epidermidis (115)): 8 µg/mL (≈ 10.9 µM); MIC90 (S. epidermidis (115)): > 64 µg/mL; MIC (staphylococcus aureus21): 4 µg/mL (≈ 5.45 µM); MIC [18]: 0.5 µg/mL (≈ 0.681 µM); MIC (enterococcus32): 2 µg/mL (≈ 2.73 µM)
CCC(=O)OC1CC(=O)OC(C)C/C=C/C=C/C(OC2CCC(N(C)C)C(C)O2)C(C)CC(CC=O)C(OC2OC(C)C(OC3CC(C)(O)C(OC(=O)CC(C)C)C(C)O3)C(N(C)C)C2O)C1OC (stereo not drawn) [Levoisovalerylspiramycin III, levoisovalerylspiramycin III]	63.2	52.8	24.6	0.06 (≈ 0.061 µM)	0.06 (≈ 0.061 µM)	0.25 (≈ 0.254 µM)	0.25 (≈ 0.254 µM)	32 (≈ 32.5 µM)	8.99	13.1	8.98	0.12 (≈ 0.122 µM)	4 (≈ 4.07 µM)	2 (≈ 2.03 µM)	32 (≈ 32.5 µM)	0.12 (≈ 0.122 µM)	0.12 (≈ 0.122 µM)	0.25 (≈ 0.254 µM)	0.03 (≈ 0.0305 µM)	0.25 (≈ 0.254 µM)	LD50 at 1 week [19]: > 4000 mg/kg; Mortality rate (%) ([19]; 1 week): 35%; mortality ([19]; 1 week): 7; MIC50 (S. epidermidis (115)): 1 µg/mL (≈ 1.02 µM); MIC90 (S. epidermidis (115)): 32 µg/mL (≈ 32.5 µM); MIC (staphylococcus aureus21): 0.5 µg/mL (≈ 0.509 µM); adverse reaction [17]: 2.5%; clearance of pathogens [17]: 97.56%; clinical efficacy (FAS) [17]: 92.30%; MIC [18]: 0.12 µg/mL (≈ 0.122 µM); MIC (enterococcus32): 0.25 µg/mL (≈ 0.254 µM)
